{"source": "patent US20220241308A1", "about": "“NEURONAL FUNCTION MODULATING AGENT” (University of Tsukuba, priority 2019, published 2022)", "key": {"[1]": {"test_system": "PARP1 (poly(ADP-ribose) polymerase 1)", "experiment": "Gene expression experiment (real-time PCR) in SH-SY5Y cells: PARP1", "assay_type": "cell-based", "details": "24 h", "protocol": "SH-SY5Y cells were seeded in 100 mm-cell dishes (BD Biocoat) at concentrations of 3.7×10^5 cells/mL (10 mL/dish) and cultured for 24 h at 37° C. and 5% CO2. Culture medium used was F12/DMEM (Gibco) supplemented with 1% non-essential amino acids (Gibco), 15% FBS (Bio West), and 1% penicillin/streptomycin (Lonza). After 24 h, the culture medium was completely removed with an aspirator, 10 mL of culture medium Opti-MEM(Gibco) was added to each dish, and the cells were cultured for 24 h at 37° C. and 5% CO2. RNA was extracted from the culture cells and analyzed for the expression of genes described below by real-time PCR (designated as “Control” in FIGS. 2 to 8).\nRNA extraction was performed using ISOGEN Reagent (Nippon Gene Co., Ltd.) in accordance with the protocol recommended by Nippo n Gene Co., Ltd. (see URL: https://www.nippongene.com/siyaku/product/extraction/tds/tds_isogen-rna-dna-protein.pdf). Real-time PCR was performed according to the protocol recommended by Thermo Fisher Scientific using a reagent kit for TaqMan Real-Time PCR (Thermo Fisher Scientific) (see URL: https://assets.thermofisher.com/TFS-Assets/LSG/manuals/4304449_TaqManPCRMM_UG.pdf).\n24 h after seeding 100 mm-cell dishes (BD Biocoat) with SH-SY5Y cells, the culture medium was completely removed with an aspirator, amyloid β protein (Beta-Amyloid 1-42, AnaSpec) was mixed with Opti-MEM (Gibco) so that the final concentration was 5 μM, 10 mL of the mixture was added to each dish, the cells were cultured for 24 h at 37° C. and 5% CO2, and RNA was extracted. Except for performing the procedure described above, gene expression was analyzed as described above (designated as “Aβ” in FIGS. 2 to 8).\n24 h after seeding 100 mm-cell dishes (BD Biocoat) with SH-SY5Y cells, the culture medium was completely removed with an aspirator, Sample 1 was mixed with culture medium Opti-MEM(Gibco) so that the final concentration was 12.56 μM, 9,990 μL of the mixture was added to each dish and allowed to stand for 10 min, amyloid β protein (Beta-Amyloid 1-42, AnaSpec) was mixed with Opti-MEM (Gibco) so that the final concentration was […], 10 μL of the mixture was added to each well, the cells were cultured for 24 h at 37° C. and 5% CO2, and RNA was extracted. Except for performing the procedure described above, Gene expression was analyzed as described above (designated as “Aβ+M3,5G” in FIGS. 2 to 8).\nExcept that Sample 2 was used instead of Sample 1, gene expression was analyzed as described above (designated as “Aβ+M” in FIGS. 2 to 8).\nExcept that Sample 3 was used instead of Sample 1, gene expression was analyzed as described above (designated as “Aβ+M3G” in FIGS. 2 to 8). […]"}, "[2]": {"test_system": "senescence-accelerated mice (SAMP8)", "experiment": "Animal experiment: Morris water maze test (platform test, probe test)", "assay_type": "in vivo", "details": "SAMP8, oral, 30 days, 2.17 mg malvidin-3,5-diglucoside/kg/day", "protocol": "Mice and administration regimens used in the experiment are as described below. Breeding conditions are common to all groups.\nCompound (M3,5G)-treated (SAMP8) group: Sample 5 was orally administered to 10 senescence-accelerated mice (SAMP8) (16 weeks old, weighing 28-30 g, Japan SLC, Inc.) for a period of 30 days at a daily dose of 2.17 mg of malvidin-3,5-diglucoside per kg of mouse body weight (designated as “Senescence-accelerated mice+Compound (M3,5G)” in FIGS. 11 to 13).\nExtract-treated (SAMP8) group: Sample 4 was orally administered to 10 senescence-accelerated mice (SAMP8) (16 weeks old, weighing 28-30 g, Japan SLC, Inc.) for a period of 30 days at a daily dose of 25 mg of extract powder (2.17 mg of malvidin-3,5-diglucoside in […]) per kg of mouse body weight (designated as “Senescence-accelerated mice+Extract” in FIGS. 11 to 13). […]\nMice were released into the pool and the time taken for the mice to arrive at the platform was measured. […]\nOn the last day of the test, the platform was removed from the pool and the mice were again released into the pool. The number of times the mouse crossed the former platform location was counted and the time the mouse spent on the former platform location was measured."}}}
{"smiles": "COc1cc(-c2[o+]c3cc(O)cc(OC4OC(CO)C(O)C(O)C4O)c3cc2OC2OC(CO)C(O)C(O)C2O)cc(OC)c1O", "note": "(stereo not drawn) [M3,5G, Malvidin-3,5-diglucoside chloride]", "values": [{"measurement": "expression of PARP1", "setting": "[1]; 12.56 μM, amyloid β protein-treated cells, compared to “Aβ”", "value": "significantly high"}, {"measurement": "expression of PARP1", "setting": "[1]; Sample 1 alone, no amyloid β, compared to “Control”", "value": "comparable"}, {"measurement": "learn and memory ability of animals", "setting": "[2]", "value": "improvements"}]}
